US11666575B2, “Pyrazolo[1,5]pyrimidine-based compounds and methods of their use to treat viral infections” (Lexicon Pharmaceuticals, Inc., priority 2020, dated 2023)
“And” between values parts separate entries of the source, which are not always exact repeats. Identical values can stand only once. Counter-ions that a name gives are not always drawn. Like-named read-outs stand apart in the source and are kept apart here.

Tests used:
HCoV-OC43 = experiment: OC43 CPE assay in Huh-7 cells (neutral red uptake); format: cell-based, Human coronavirus OC43; conditions: for Raw OD - Absorbance 490 nm: infected Huh-7, neutral red uptake, individual replicate; for EC50: Betacoronavirus 1, OC43, 144 h, 6 days, neutral red uptake
in vitro [1] = conditions: human
Huh-7 cells = experiment: Cytotoxicity / viability of uninfected Huh-7 cells (XTT); conditions: for Viability of Huh-7 Cells (A490): 6 days, individual raw data; for Viability (A490): cytotoxic control, raw data, Huh-7
[2] = as above; conditions: human, uninfected Huh-7 cells
[3] = tested on: HCoV-OC43 (Betacoronavirus 1); experiment: microbe, parasite or virus in culture; format: cell-based; conditions: for EC50: read-out: Efficacy
in vitro [4] = conditions: human; remark: listed apart in the source
H292 cells (NCI-H292) = experiment: Cytotoxicity in uninfected H292 cells (MTT)
[5] = tested on: alpha coronavirus 229E (CoV-229E); experiment: Inhibition of CoV-229E-induced CPE in MRC-5 cells (XTT); conditions: CPE reduction, CoV-229E in MRC-5 cells, 6 days
[6] = Betacoronavirus 1, OC43, Huh-7, 0.01 μM, average ± SD of duplicates, read-out: Inhibition of OC43 Virus-Induced CPE in Huh-7 Cells
[7] = Betacoronavirus 1, OC43, Huh-7, 0.04 μM, average ± SD of duplicates, read-out: Inhibition of OC43 Virus-Induced CPE in Huh-7 Cells
[8] = Betacoronavirus 1, OC43, Huh-7, 0.12 μM, average ± SD of duplicates, read-out: Inhibition of OC43 Virus-Induced CPE in Huh-7 Cells
[9] = Betacoronavirus 1, OC43, Huh-7, 0.4 μM, average ± SD of duplicates, read-out: Inhibition of OC43 Virus-Induced CPE in Huh-7 Cells
[10] = Betacoronavirus 1, OC43, Huh-7, 1.1 μM, average ± SD of duplicates, read-out: Inhibition of OC43 Virus-Induced CPE in Huh-7 Cells
[11] = Betacoronavirus 1, OC43, Huh-7, 10 μM, average ± SD of duplicates, read-out: Inhibition of OC43 Virus-Induced CPE in Huh-7 Cells
[12] = Betacoronavirus 1, OC43, Huh-7, 30 μM, average ± SD of duplicates, read-out: Inhibition of OC43 Virus-Induced CPE in Huh-7 Cells
[13] = Betacoronavirus 1, NCI-H292, 144 h, EC50, HCoV-OC43-infected H292 cells, MTT, 6 days
[14] = Betacoronavirus 1, OC43, NCI-H292, 144 h
[15] = CC50, uninfected H292 cells, MTT, 6 days

CCN(CC)CCNC(=O)c1c(C)[nH]c(/C=C2\C(=O)Nc3ccc(F)cc32)c1C [Sunitinib maleate, sunitinib malate]
Raw OD - Absorbance 490 nm (HCoV-OC43; 0.01 μM): 0.120 | Raw OD - Absorbance 490 nm (HCoV-OC43; 0.04 μM): 0.094 | Raw OD - Absorbance 490 nm (HCoV-OC43; 0.4 μM): 0.086 and 0.090 | Raw OD - Absorbance 490 nm (HCoV-OC43; 1.1 μM): 0.094 | Raw OD - Absorbance 490 nm (HCoV-OC43; 3.3 μM): 0.312 and 0.136 | Raw OD - Absorbance 490 nm (HCoV-OC43; 10 μM): 0.214 and 0.280 | Raw OD - Absorbance 490 nm (HCoV-OC43; 30 μM): 0.051 and 0.053 | EC50 (HCoV-OC43; Huh-7 cells): > 30 µM | inhibition at 3.3 µM (HCoV-OC43; Betacoronavirus 1, OC43, Huh-7, read-out: Inhibition of OC43 Virus-Induced CPE in Huh-7 Cells): 17.9 ± 18.5% | inhibition at 0.01 µM (HCoV-OC43; [6]): 1.1 ± 1.9% | inhibition at 0.04 µM (HCoV-OC43; [7]): -1.2 ± 0.4% | inhibition at 0.12 µM (HCoV-OC43; [8]): -0.1 ± 0.4% | inhibition at 0.4 µM (HCoV-OC43; [9]): -2.4 ± 0.4% | inhibition at 1.1 µM (HCoV-OC43; [10]): -1 ± 0.8% | inhibition at 10 µM (HCoV-OC43; [11]): 21.4 ± 7% | inhibition at 30 µM (HCoV-OC43; [12]): -7.8 ± 0.2% | CC50 at 6 days (in vitro [1]): 13 µM | viability at 6 days, 0.01 µM (in vitro [1]): 92 ± 7.2% | viability at 6 days, 0.04 µM (in vitro [1]): 100 ± 1.3% | viability at 6 days, 0.12 µM (in vitro [1]): 99.1 ± 3.4% | viability at 6 days, 0.37 µM (in vitro [1]): 101 ± 3.4% | viability at 6 days, 1.1 µM (in vitro [1]): 89.7 ± 1.1% | viability at 6 days, 3.3 µM (in vitro [1]): 82.6 ± 4.2% | viability at 6 days, 10 µM (in vitro [1]): 72 ± 1.1% | viability at 6 days, 30 µM (in vitro [1]): 0.8 ± 0.3% | viability at 6 days, 90 µM (in vitro [1]): 0.4 ± 0.1% | Viability of Huh-7 Cells (A490) (Huh-7 cells; 0.01 μM, XTT): 0.721 and 0.651 | Viability of Huh-7 Cells (A490) (Huh-7 cells; 0.04 μM, XTT): 0.738 and 0.751 | Viability of Huh-7 Cells (A490) (Huh-7 cells; 0.12 μM, XTT): 0.719 and 0.752 | Viability of Huh-7 Cells (A490) (Huh-7 cells; 0.37 μM, XTT): 0.732 and 0.765 | Viability of Huh-7 Cells (A490) (Huh-7 cells; 1.1 μM, XTT): 0.676 and 0.665 | Viability of Huh-7 Cells (A490) (Huh-7 cells; 3.3 μM, XTT): 0.642 and 0.601 | Viability of Huh-7 Cells (A490) (Huh-7 cells; 10 μM, XTT): 0.543 and 0.554 | Viability of Huh-7 Cells (A490) (Huh-7 cells; 30 μM, XTT): 0.058 and 0.055 | Viability of Huh-7 Cells (A490) (Huh-7 cells; 90 μM, XTT): 0.053 and 0.054

CC[C@H]1CN2CCc3cc(OC)c(OC)cc3[C@@H]2C[C@@H]1C[C@H]1NCCc2cc(OC)c(OC)cc21 [Emetine]
cytotoxicity at 6 days, 5 μM [2]: > 90% | viability at 6 days, 1 µM [2]: 18.3 ± 0.3% | viability at 6 days, 5 µM [2]: 8.2 ± 0.7% | Viability (A490) (Huh-7 cells; 1 μm): 0.176 and 0.179 | Viability (A490) (Huh-7 cells; 5 μm): 0.104 and 0.111 | inhibition of cell viability (Huh-7 cells; tested at 5 μM, XTT): more than 90%

CCN(CC)CCNC(=O)c1c(C)[nH]c(/C=C2\C(=O)Nc3ccc(F)cc32)c1C [Sunitinib]
EC50 [3, 13]: 0.406 µM | CC50 at 6 days (in vitro [4]; uninfected MRC-5 cells): 1.32 µM | Cytotoxicity (H292 cells (NCI-H292)): 10 to 50 µM

CCC(CC)COC(=O)[C@H](C)N[P@](=O)(OC[C@H]1O[C@@](C#N)(c2ccc3c(N)ncnn23)[C@H](O)[C@@H]1O)Oc1ccccc1 [Remdesivir]
EC50 [3, 14]: 37.5 µM | CC50 at 6 days (in vitro [4]): > 2 µM | Cytotoxicity (H292 cells (NCI-H292); [15]): >20 µM | EC50 [5]: 0.13 µM

CCN(CC)CCCC(C)Nc1ccnc2cc(Cl)ccc12 (stereo not drawn) [Chloroquine]
prevention of virus-induced CPE (HCoV-OC43; 6-day assay, Huh-7 cells): potently prevented the virus-induced CPE | inhibition at 5 µM (HCoV-OC43; Betacoronavirus 1, OC43, Huh-7, read-out: Inhibition of OC43 Virus-Induced CPE in Huh-7 Cells, 5 μM, control inhibitor, relative to uninfected cells (mock)): ~88% | EC50 [3, 14]: 0.4 µM | antiviral effect against β-coronavirus OC43 in H292 cells ([3]; 6 days): antiviral effect | Cytotoxicity (H292 cells (NCI-H292); [15]): 46.04 µM | EC50 [5]: 0.49 µM

COc1ncccc1-c1cnn2ccc(N3CCN(C(=O)OC4(C)COC4)CC3)nc12 [Compound 1, 3-methyloxetan-3-yl-4-(3-(2-methoxypyridin-3-yl)pyrazolo[1,5-a]pyrimidin-5-yl)piperazine-1-carboxylate]
Raw OD - Absorbance 490 nm (HCoV-OC43; 0.01 μM, listed as Compd. 1): 0.102 and 0.108 | Raw OD - Absorbance 490 nm (HCoV-OC43; 0.04 μM, listed as Compd. 1): 0.100 and 0.097 | Raw OD - Absorbance 490 nm (HCoV-OC43; 0.12 μM, listed as Compd. 1): 0.092 and 0.094 | Raw OD - Absorbance 490 nm (HCoV-OC43; 0.4 μM, listed as Compd. 1): 0.087 and 0.096 | Raw OD - Absorbance 490 nm (HCoV-OC43; 1.1 μM, listed as Compd. 1): 0.102 and 0.104 | Raw OD - Absorbance 490 nm (HCoV-OC43; 3.3 μM, listed as Compd. 1): 0.105 and 0.103 | Raw OD - Absorbance 490 nm (HCoV-OC43; 10 μM, listed as Compd. 1): 0.115 and 0.117 | antiviral effect at 30 μM (HCoV-OC43; 30 μM, Huh-7 cells, likely due to compound-induced toxicity): disappeared | Raw OD - Absorbance 490 nm (HCoV-OC43; 30 μM, listed as Compd. 1): 0.076 and 0.072 | EC50 (HCoV-OC43; Huh-7 cells): > 30 µM | inhibition at 0.01 µM (HCoV-OC43; [6]): -0.2 ± 0.6% | inhibition at 0.04 µM (HCoV-OC43; [7]): -0.8 ± 0.4% | inhibition at 0.12 µM (HCoV-OC43; [8]): -1.7 ± 0.2% | inhibition at 0.4 µM (HCoV-OC43; [9]): -1.9 ± 0.8% | inhibition at 1.1 µM (HCoV-OC43; [10]): -0.2 ± 0.2% | inhibition at 3.3 µM (HCoV-OC43; Betacoronavirus 1, OC43, Huh-7, 3.3 μM, average ± SD of duplicates, read-out: Inhibition of OC43 Virus-Induced CPE in Huh-7 Cells): 0% | inhibition at 10 µM (HCoV-OC43; [11]): 1.8 ± 0.3% | inhibition at 30 µM (HCoV-OC43; [12]): -4.5 ± 0.5% | EC50 [3, 13]: 9.31 µM | antiviral effect against β-coronavirus OC43 in H292 cells ([3]; 6 days): significant antiviral effect | viability of infected H292 cells ([3]; HCoV-OC43 infected, FIG. 6): increased with increased concentrations | viability at 6 days, 0.01 µM (in vitro [1]): 96.9 ± 0.8% | viability at 6 days, 0.04 µM (in vitro [1]): 100.4 ± 0.7% | viability at 6 days, 0.12 µM (in vitro [1]): 91.4 ± 1.8% | viability at 6 days, 0.37 µM (in vitro [1]): 88.8 ± 2.2% | viability at 6 days, 1.1 µM (in vitro [1]): 104 ± 2.9% | viability at 6 days, 3.3 µM (in vitro [1]): 113 ± 4.4% | viability at 6 days, 10 µM (in vitro [1]): 117 ± 4.5% | viability at 6 days, 30 µM (in vitro [1]): 111 ± 5.3% | viability at 6 days, 90 µM (in vitro [1]): 57.1 ± 4.9% | Cytotoxicity (H292 cells (NCI-H292); [15]): >300 µM | viability of uninfected H292 cells (H292 cells (NCI-H292); with increased concentrations, FIG. 6): did not change significantly | EC50 [5]: > 10 µM | Viability of Huh-7 Cells (A490) (Huh-7 cells; 0.01 μM, XTT, listed as Compd. 1): 0.724 and 0.716 | Viability of Huh-7 Cells (A490) (Huh-7 cells; 0.04 μM, XTT, listed as Compd. 1): 0.748 and 0.941 | Viability of Huh-7 Cells (A490) (Huh-7 cells; 0.12 μM, XTT, listed as Compd. 1): 0.673 and 0.691 | Viability of Huh-7 Cells (A490) (Huh-7 cells; 0.37 μM, XTT, listed as Compd. 1): 0.675 and 0.654 | Viability of Huh-7 Cells (A490) (Huh-7 cells; 1.1 μM, XTT, listed as Compd. 1): 0.758 and 0.786 | Viability of Huh-7 Cells (A490) (Huh-7 cells; 3.3 μM, XTT, listed as Compd. 1): 0.807 and 0.850 | Viability of Huh-7 Cells (A490) (Huh-7 cells; 10 μM, XTT, listed as Compd. 1): 0.878 and 0.834 | Viability of Huh-7 Cells (A490) (Huh-7 cells; 30 μM, XTT, listed as Compd. 1): 0.844 and 0.792 | Viability of Huh-7 Cells (A490) (Huh-7 cells; 90 μM, XTT, listed as Compd. 1): 0.421 and 0.469
